Measurements: patent US20230054194A1, “Methods of Treating Cancer” (ARIAGEN, INC., priority 2018, published 2023)

Tests used:
H22 = H22 subcutaneous syngeneic liver cancer mouse model (Study 11), tumor growth inhibition; type: in vivo, mouse (BALB/C); conditions: for Tumor size / TGI(%): H22 model, study end day Day 18; for Tumor size: Mean ± SEM, in mm³
Procedure: (§1) In this example, the in vivo anti-tumor efficacy of ARI-001, ARI-002, ARI-003, and ARI-143 and their combinations with an anti-PD-1 antibody was evaluated using a panel of twelve subcutaneous syngeneic mouse tumor models.
(§2) Eleven subcutaneous syngeneic mouse tumor models were generated by innoculating female BALB/C or C57BL/6 mice with cancer cells at their right lower or right front flank followed by randomization as detailed in Table 4 below.
(§3) A solution of a rat monoclonal anti-mouse PD-1 antibody (isotype IgG2a, κ) at a concentration of 6.61 mg/ml was obtained from BioXcell (InVivoMAb anti-mouse PD-1 (CD279), Clone RMP1-14, Cat #BE0146)) and store at 4° C. The antibody solution was diluted with PBS to obtain a 1 mg/ml dosing solution.
(§4) ARI-001, ARI-002, and ARI-003 powder was stored at −20° C. The powder of each compound was dissolved in DMSO to obtain dosing solutions at 106.7, 80, and 53.33 mg/ml for administration to mice at 160, 120, and 80 mg/kg, respectively. ARI-143 was similarly prepared.
(§5) Twelve studies using the twelve subcutaneous syngeneic mouse tumor models were performed. In each study, 80 mice were enrolled and randomly allocated to eight different study groups, with 10 mice in each study group. The mean tumor size at randomization was approximately 80-120 mm^3 (around 100 mm^3). Randomization was performed based on “Matched distribution” randomization method (StudyDirector™ software, version 3.1.399.19). […] All the drugs and vehicle controls were injected to the mice intraperitoneally.
(§6) After tumor cell inoculation, the animals were checked daily for morbidity and mortality. At the time of routine monitoring, the animals were checked for any effects of tumor growth and treatments on behavior such as mobility, food and water consumption, body weight gain/loss (body weights were measured twice or three times per week after randomization), and any other abnormalities. Mortality and observed clinical signs were recorded for individual animals. Tumor volumes were measured twice or three times weekly after randomization in two dimensions using a caliper, and the volume was expressed in mm^3 using the formula: […]
(§7) where V is tumor volume, L is tumor length (the longest tumor dimension) and W is tumor width (the longest tumor dimension perpendicular to L).
(§8) The study was terminated when the mean tumor volume (MTV) in the vehicle group reached a value of 2,000 mm^3. Tumor growth inhibition (TGI) is an indication of antitumor activity, and expressed as: […]
(§9) where T and C are the MTV (or weight) of the treated and control groups, respectively, on a given day. Statistical analysis of the difference in MTV among the groups was conducted using the data collected on the day when the MTV of the vehicle group reached the humane endpoints, so that TGI could be derived for all or most mice enrolled in the study.
(§10) Statistical analysis of differences in MTV among the groups was conducted by Independent-Samples T Test using the data collected. All data were analyzed with SPSS (Statistical Product and Service Solutions) version 18.0 (IBM, Armonk, N.Y., U.S.). P-values were rounded to three decimal places, with the exception that raw P-values less than 0.001 were stated as P<0.001. All tests were two-sided. P<0.05 was considered to be statistically significant.
FIG. 70 is a graph showing the mean tumor volume on different study days in the study groups as indicated according to Study 11 (H22). The study end day was Day 18.

A20 = A20 subcutaneous syngeneic lymphoma mouse model (Study 5), tumor growth inhibition; type: in vivo, mouse (BALB/C); conditions: for TGI(%) / Tumor size (Mean ± SEM): A20 model, i.p., ARI compounds 160 mg/kg QD × 14 doses, Anti-PD-1 10 BIW × 4 doses, study end day Day 26
Procedure: as §1, §2, §3, §4, §5, §6, §7, §8, §9, §10
FIG. 64 is a graph showing the mean tumor volume on different study days in the study groups as indicated according to Study 5 (A20). The study end day was Day 26.

CT26 = test: CT-26 subcutaneous syngeneic colon cancer mouse model (Study 4), tumor growth inhibition; type: in vivo, mouse (BALB/C); conditions: for TGI(%) / Tumor size (Mean ± SEM): CT-26 model, i.p., ARI compounds 160 mg/kg QD × 15 doses, Anti-PD-1 10 BIW × 5 doses, study end day Day 23
Procedure: as §1, §2, §3, §4, §5, §6, §7, §8, §9, §10
FIG. 63 is a graph showing the mean tumor volume on different study days in the study groups as indicated according to Study 4 (CT-26). The study end day was Day 23.

RM-1 = RM-1 subcutaneous syngeneic prostate cancer mouse model (Study 7), tumor growth inhibition; type: in vivo, mouse (C57BL/6); conditions: for Tumor size / TGI(%): RM-1 model, study end day Day 19; for Tumor size: Mean ± SEM, in mm³
Procedure: as §1, §2, §3, §4, §5, §6, §7, §8, §9, §10
FIG. 66 is a graph showing the mean tumor volume on different study days in the study groups as indicated according to Study 7 (RM-1). The study end day was Day 19.

EMT-6 = EMT-6 subcutaneous syngeneic breast cancer mouse model (Study 2 and Study 12), tumor growth inhibition; type: in vivo, mouse (BALB/C); conditions: for TGI(%) / Tumor size (Mean ± SEM): EMT-6 model (Study 2), i.p., ARI-001 160/120 mg/kg QD × 15/6 doses, ARI-002 and ARI-003 160 mg/kg QD × 21 doses, Anti-PD-1 10 BIW × 6 doses, study end day Day 27; for anti-tumor potency of anti-PD-1 antibody combined with the compound, compared to the antibody alone or the vehicle / anti-tumor potency of the compound combined with anti-PD-1 antibody, compared to being used alone: EMT-6 syngeneic breast cancer model
Procedure: as §1, §2, §3, §4, §5, §6, §7, §8, §9, §10
FIG. 61 is a graph showing the mean tumor volume on different study days in the study groups as indicated according to Study 2 (EMT-6). The study end day was Day 27.

Renca = Renca subcutaneous syngeneic kidney cancer mouse model (Study 8), tumor growth inhibition; type: in vivo, mouse (BALB/C); conditions: for Tumor size / TGI(%): Renca model, study end day Day 28; for Tumor size: Mean ± SEM, in mm³; for anti-tumor potency of anti-PD-1 antibody combined with the compound, compared to the antibody alone: Renca syngeneic kidney cancer model
Procedure: as §1, §2, §3, §4, §5, §6, §7, §8, §9, §10
FIG. 67 is a graph showing the mean tumor volume on different study days in the study groups as indicated according to Study 8 (Renca). The study end day was Day 28.

Hepa1-6 = Hepa1-6 subcutaneous syngeneic liver cancer mouse model (Study 9), tumor growth inhibition; type: in vivo, mouse (C57BL/6); conditions: for Tumor size / TGI(%): Hepa1-6 model, study end day Day 26; for Tumor size: Mean ± SEM, in mm³
Procedure: as §1, §2, §3, §4, §5, §6, §7, §8, §9, §10
FIG. 68 is a graph showing the mean tumor volume on different study days in the study groups as indicated according to Study 9 (Hepal-6). The study end day was Day 26.

Pan02 = Pan02 subcutaneous syngeneic pancreatic cancer mouse model (Study 3), tumor growth inhibition; type: in vivo, mouse (C57BL/6); conditions: for TGI(%) / Tumor size (Mean ± SEM): Pan02 model, i.p., ARI compounds 160 mg/kg QD × 28 doses, Anti-PD-1 10 BIW × 8 doses, study end day Day 32; for anti-tumor potency of anti-PD-1 antibody combined with the compound, compared to the antibody alone: Pan02 syngeneic pancreatic cancer model
Procedure: as §1, §2, §3, §4, §5, §6, §7, §8, §9, §10
FIG. 62 is a graph showing the mean tumor volume on different study days in the study groups as indicated according to Study 3 (Pan02). The study end day was Day 32.

[1] = RM-1 syngeneic prostate cancer model

SMILES | Tumor size (H22) | TGI(%) (H22) | TGI(%) (A20) | Tumor size (Mean ± SEM) (A20) | TGI(%) (CT26) | Tumor size (Mean ± SEM) (CT26) | Tumor size (RM-1) | TGI(%) (RM-1) | anti-tumor potency of anti-PD-1 antibody combined with the compound, compared to the antibody alone (RM-1; [1]) | TGI(%) (EMT-6) | Tumor size (Mean ± SEM) (EMT-6) | anti-tumor potency of anti-PD-1 antibody combined with the compound, compared to the antibody alone or the vehicle (EMT-6) | anti-tumor potency of the compound combined with anti-PD-1 antibody, compared to being used alone (EMT-6) | Tumor size (Renca) | TGI(%) (Renca) | anti-tumor potency of anti-PD-1 antibody combined with the compound, compared to the antibody alone (Renca) | Tumor size (Hepa1-6) | TGI(%) (Hepa1-6) | TGI(%) (Pan02) | Tumor size (Mean ± SEM) (Pan02) | further results
CCC(=O)c1csc(C(=O)c2c[nH]c3ccccc23)n1 [ARI-002] | 1261.07 ± 203.55 | 44% | 45% | 1446.75 ± 149.90 mm^3 | 51% | 1112.29 ± 124.36 mm^3 | 1744.11 ± 144.25 | 41% | statistically significant increase | 55% | 842.08 ± 135.38 mm^3 | statistically significant increase | statistically significant increase | 1101.99 ± 92.71 | 49% | statistically significant increase | 1018.26 ± 232.72 | 37% | 66% | 308.02 ± 177.67 mm^3 | anti-tumor potency of the compound combined with anti-PD-1 antibody, compared to being used alone (H22; H22 syngeneic liver cancer model): statistically significant increase; anti-tumor potency of the compound combined with anti-PD-1 antibody, compared to being used alone (A20; A20 syngeneic lymphoma tumor model): statistically significant increase; anti-tumor potency of anti-PD-1 antibody combined with the compound, compared to the antibody alone (CT26; CT-26 syngeneic colon cancer model): statistically significant increase; anti-tumor potency of anti-PD-1 antibody combined with the compound, compared to the antibody alone (Pan02): statistically significant increase
COC(=O)c1csc(C(=O)c2c[nH]c3ccccc23)n1 [ARI-001] | 1139.95 ± 207.21 | 50% | 55% | 1190.08 ± 205.09 mm^3 | 56% | 1015.32 ± 114.50 mm^3 | 1732.55 ± 162.92 | 41% | statistically significant increase | 53% | 871.63 ± 142.67 mm^3 | statistically significant increase | statistically significant increase | 1367.52 ± 118.53 | 36% | statistically significant increase | 1174.25 ± 229.74 | 27% | 60% | 357.19 ± 232.32 mm^3 | anti-tumor potency of the compound combined with anti-PD-1 antibody, compared to being used alone (RM-1; [1]): statistically significant increase; anti-tumor potency of the compound combined with anti-PD-1 antibody, compared to being used alone (Hepa1-6; Hepa1-6 syngeneic liver cancer model): statistically significant increase; anti-tumor potency of anti-PD-1 antibody combined with the compound, compared to the antibody alone (Pan02): statistically significant increase
